Measured values taken from paper PMC10040144 (ACS infectious diseases, 2022).

What was measured:
PBP1a = PBP1a (Escherichia coli, UniProt P02918); type: cell-based, Escherichia coli MG1655
PBP4 [1] = molecular target: T1, PBP4 (Escherichia coli, UniProt P24228); type: cell-based, Escherichia coli MG1655; conditions: for Bocillin-FL labeling of PBP4 at high inhibitor concentration: 10 mM inhibitor, all three biological replicates
PBP2 = PBP2 (Escherichia coli, UniProt P0AD65); type: cell-based, Escherichia coli MG1655
PBP1b = PBP1b (Escherichia coli, UniProt P02919); type: cell-based, Escherichia coli MG1655
PBP7 = PBP7 (Escherichia coli, UniProt P0AFI5); type: cell-based, Escherichia coli MG1655
PBP4 [2] = molecular target: T1, PBP4; assay: Meropenem titration against the PBPs in cell lysate; type: binding; conditions: E. coli MG1655 lysate, in vitro (Figure S3)
PBP4 [3] = conditions: read-out: reported IC50 values PBP4; literature range; cited from earlier work
PBP5/6 = type: cell-based, Escherichia coli MG1655; conditions: 10 mM inhibitor, all three biological replicates
PBP3 = PBP3 (Escherichia coli, UniProt P0AD68); type: cell-based, Escherichia coli MG1655
E. coli MG1655 [4] = assay: Phase-contrast imaging of treated cells; type: cell-based; conditions: Figure S5
E. coli MG1655 [5] = assay: Growth curve analysis of viability after permeabilization; conditions: 200 μM in Tris for 30 min, then LB broth 37 °C, A600 over 18 h
[6] = 10 mM inhibitor, all three biological replicates

C[C@H]1[C@H](NC(=O)/C(=N\OC(C)(C)C(=O)O)c2csc(N)n2)C(=O)N1S(=O)(=O)O [aztreonam]
IC50 (PBP1a): 970 ± 940 µM
IC50 (PBP4 [1]): > 10000 µM
Bocillin-FL labeling of PBP4 at high inhibitor concentration (PBP4 [1]): increased Bocillin-FL labeling
IC50 (PBP2): > 10000 µM
Bocillin-FL labeling of PBP2 at high inhibitor concentration (PBP2; [6]): increased Bocillin-FL labeling
IC50 (PBP1b): 1.6 ± 0.9 µM
Bocillin-FL labeling of PBP7 at high inhibitor concentration (PBP7; [6]): increased Bocillin-FL labeling

C[C@@H](O)[C@H]1C(=O)N2C(C(=O)O)=C(S[C@@H]3CN[C@H](C(=O)N(C)C)C3)[C@H](C)[C@H]12 [meropenem]
PBP4 inhibition in lysate (PBP4 [2]): no PBP4 inhibition
IC50 (PBP1a): > 10000 µM
IC50 (PBP4 [1]): > 10000 µM
IC50 (PBP2): 0.01 µM
IC50 (PBP1b): 110 ± 86 µM
IC50 (PBP4 [3]): 0.0001 to 0.01 µM

CCN1CCN(C(=O)N[C@@H](C(=O)N[C@@H]2C(=O)N3[C@@H]2SC(C)(C)[C@@H]3C(=O)O)c2ccccc2)C(=O)C1=O [piperacillin]
IC50 (PBP1a): 17 ± 15 µM
IC50 (PBP4 [1]): 25 ± 24 µM
IC50 (PBP2): 2.8 ± 2.8 µM
IC50 (PBP1b): 12 ± 7.4 µM
IC50 (PBP7): 2.3 ± 2.5 µM

CO/N=C(\C(=O)N[C@@H]1C(=O)N2C(C(=O)O)=C(CSc3nc(=O)c(=O)[nH]n3C)CS[C@H]12)c1csc(N)n1 [ceftriaxone]
IC50 (PBP1a): 4.9 ± 2.2 µM
IC50 (PBP4 [1]): 3 ± 8 µM
IC50 (PBP2): 1.5 ± 0.9 µM
IC50 (PBP1b): 0.2 ± 0.2 µM
IC50 (PBP7): 9.5 ± 9.8 µM

CO/N=C(\C(=O)N[C@@H]1C(=O)N2C(C(=O)[O-])=C(C[N+]3(C)CCCC3)CS[C@H]12)c1csc(N)n1 [cefepime]
IC50 (PBP1a): 5.5 ± 2.6 µM
IC50 (PBP4 [1]): > 10000 µM
Bocillin-FL labeling of PBP4 at high inhibitor concentration (PBP4 [1]): increased Bocillin-FL labeling
IC50 (PBP2): 0.2 ± 0.1 µM
IC50 (PBP1b): 2.6 ± 2.4 µM
Bocillin-FL labeling of PBP5/6 at high inhibitor concentration (PBP5/6): increased Bocillin-FL labeling
IC50 (PBP3): < 0.0001 µM

N[C@@H](C(=O)N[C@@H]1C(=O)N2C(C(=O)O)=C(Cl)CS[C@H]12)c1ccccc1 [cefaclor]
IC50 (PBP1a): > 10000 µM
IC50 (PBP4 [1]): > 10000 µM
IC50 (PBP2): 360 ± 210 µM
IC50 (PBP1b): > 10000 µM
Bocillin-FL labeling of PBP5/6 at high inhibitor concentration (PBP5/6): labeling was increased
IC50 (PBP7): 86 ± 66 µM
IC50 (PBP3): 15 ± 14 µM

O=C(O)CN(CCN(CC(=O)O)CC(=O)O)CC(=O)O [Tris-EDTA, ethylenediaminetetraacetic acid]
fold increases in PBP labeling in comparison to Tris alone (PBPs; cotreatment with 25 μM Bocillin-FL in 50 mM Tris-200 μM EDTA, 30 min): 1.2–5 fold
fold increases in Bocillin-FL labeling in comparison to the original DC2 method (PBPs; vs 7.5 μM Bocillin-FL in PBS, 10 min): 2 to 61 fold
cell morphology by phase-contrast imaging (E. coli MG1655 [4]): little difference in the morphologies

CC1=C(C(=O)O)N2C(=O)[C@@H](NC(=O)[C@H](N)c3ccccc3)[C@H]2SC1 [cephalexin]
IC50 (PBP1a): > 10000 µM
IC50 (PBP4 [1]): 68 ± 79 µM
IC50 (PBP1b): > 10000 µM
IC50 (PBP7): 200 ± 250 µM

colistin
lag in growth (E. coli MG1655 [5]): ~ 10 h

COc1cccc(OC)c1C(=O)N[C@@H]1C(=O)N2[C@@H]1SC(C)(C)[C@@H]2C(=O)O [methicillin]
IC50 (PBP1a): > 10000 µM
IC50 (PBP4 [1]): 87 ± 51 µM
IC50 (PBP7): 58 ± 70 µM

C[C@@H](O)[C@H]1C(=O)N2C(C(=O)O)=C([C@H]3CCCO3)S[C@H]12 [faropenem]
IC50 (PBP1a): 6.4 ± 3.6 µM
IC50 (PBP4 [1]): 2 ± 1.6 µM
IC50 (PBP2): 0.04 ± 0.04 µM
IC50 (PBP1b): 0.4 ± 0.2 µM
IC50 (PBP7): 1.2 ± 1.8 µM

NC(=O)[C@@H]1CC[C@@H]2CN1C(=O)N2OS(=O)(=O)O [avibactam]
IC50 (PBP1a): > 10000 µM
IC50 (PBP4 [1]): > 10000 µM
IC50 (PBP2): < 100 µM
IC50 (PBP1b): 310 ± 460 µM
IC50 (PBP3): > 10000 µM

CO/N=C(\C(=O)N[C@@H]1C(=O)N2C(C(=O)O)=C(COC(N)=O)CS[C@H]12)c1ccco1 [cefuroxime]
IC50 (PBP1a): 73 ± 42 µM
IC50 (PBP4 [1]): 24 ± 22 µM
IC50 (PBP2): 91 ± 65 µM
IC50 (PBP1b): 1.6 ± 1.9 µM
IC50 (PBP7): 25 ± 31 µM
IC50 (PBP3): 0.02 ± 0.01 µM

CC1(C)S[C@@H]2[C@H](NC(=O)Cc3ccccc3)C(=O)N2[C@H]1C(=O)O [penicillin G]
IC50 (PBP1a): 170 ± 93 µM
IC50 (PBP2): 65 ± 36 µM
IC50 (PBP1b): 1.5 ± 0.7 µM
IC50 (PBP3): 15 ± 9 µM
